Reference: patent US10383867B2, “Quinoline derivatives and their use for treating endoplasmic reticulum stress-related diseases and disorders” (priority 2015, dated 2019)

These compounds were tested on HEK293 cells / N2a cells under ER stress (assay: ER stress cell rescue assay (protection against thapsigargin- or hydrogen peroxide-induced cell-death)). Details: cell rescue from induced ER stress; cell line of the EC50 not specified.
Assay type: cell-based, human (HEK293), mouse (N2a)
Protocol: Protection against Thapsigargin (TG)-induced Cell-death. Human embryonic kidney (HEK293) cells were grown in Dulbecco's Modified Eagle's Medium (DMEM) with 10% FBS and 1% antibiotic antimycotic solution (ABAM). Mouse neuroblastoma (N2a) cells were grown in 1:1 DMIEM:OPTI-MEM® with 5% FBS and 1% ABAM. All cells were grown in 10% CO2 in a humidified environment of the incubator. Cells grown in 96-well plates were exposed to a test compound (20 μM) for 2 hrs before addition of thapsigargin (15 μM for HEK293 cells and 1 μM for N2a cells) to induce ER stress. After incubation in cell-culture incubator for 24 hrs, ALAMARBLUE® regent (10% v/v) was added to the wells. Fluorescence reading was taken 2 hrs after the addition of the ALAMARBLUE® regent. Cell-viability was calculated as a percentage of relative fluorescence unit (RFU) compared to control.
Protection against Hydrogen Peroxide-induced Cell-death. N2a cell grown in 96-well plates were exposed to a test compound (40 μM) for 2 hrs before addition of hydrogen peroxide (200 μM). After 40 min of incubation with hydrogen peroxide, ALAMARBLUE® regent (10% v/v) was added to the wells. Fluorescence reading was taken 2 hrs after the addition of the ALAMARBLUE® regent. Cell-viability was calculated as a percentage of relative fluorescence unit (RFU) compared to control.
The results are summarized in Table 1, where, for ER stress cell rescue ECso values, A represents a value smaller than 20 μM, B represents a value between 20 μM to 100 μM, C represents a value greater than 100 μM.

Compound	EC50 [µM]
Cc1ccc2cccc(/C=C/c3ccc(OC(C)C)cc3)c2n1 [A1, (E)-8-(Isopropoxystyryl)-2-methylquinoline]	< 20
Cc1ccc2cccc(-c3nc(-c4ccc(OC(C)C)cc4)no3)c2n1 [B1, 3-(4-Isopropoxyphenyl)-5-(2-methylquinolin-8-yl)-1,2,4-oxadiazole]	< 20
Cc1ccc2cccc(-c3nc(-c4ccc(Br)s4)no3)c2n1 [B2, 3-(5-Bromothiophen-2-yl)-5-(2-methylquinolin-8-yl)-1,2,4-oxadiazole]	< 20
Cc1ccc2cccc(NCc3ccc(OC(C)C)cc3)c2n1 [C1, N-((4-Isopropoxyphenyl)methyl)-2-methylquinolin-8-amine]	< 20
Cc1ccc2cccc(NCc3cc(Br)cs3)c2n1 [C2, N-((4-Bromothiophen-2-yl)methyl)-2-methylquinolin-8-amine]	< 20
Cc1ccc2cccc(NCc3ccc(Br)s3)c2n1 [C3, N-((5-Bromothiophen-2-yl)methyl)-2-methylquinolin-8-amine]	< 20
Cc1ccc2cccc(NS(=O)(=O)c3ccc(OC(C)C)cc3)c2n1 [D1, N-(2-Methylquinolin-8-yl)-5-isopropoxyphenyl-2-sulfonamide]	< 20
Cc1ccc2cccc(NS(=O)(=O)c3cc(Br)cs3)c2n1 [D2, 4-Bromo-N-(2-methylquinolin-8-yl)thiophene-2-sulfonamide]	< 20
Cc1ccc2cccc(NS(=O)(=O)c3ccc(Br)s3)c2n1 [D3, 5-Bromo-N-(2-methylquinolin-8-yl)thiophene-2-sulfonamide]	< 20

Each compound was assayed on SERCA (assay: Activation of SERCA (NADH-linked, enzyme-coupled ATPase assay)). Details: SERCA ATPase, compound at 10 μM.
Assay type: biochemical
Protocol: Test compounds were characterized over a range of concentrations using an NADH-linked, enzyme-coupled ATPase assay. Each well contained […] of SR vesicles (optimized for skeletal or cardiac SR, respectively), 50 mM MOPS (pH 7.0), 100 mM KCl, 5 mM MgCl2, 1 mM EGTA, 0.2 mM NADH, 1 mM phosphoenol pyruvate, 5 IU pyruvate kinase, 5 IU lactate dehydrogenase, and […] A23187 (a calcium ionophore), and CaCl2 was added to set free [Ca^2+] to the specific values. The assay was started upon addition of ATP at a final concentration of 5 mM, and read in a SpectraMax Plus microplate spectrophotometer and the ATPase activities were fitted using the Hill function. ECso values were determined as the concentrations of the test compounds that were required for 50% activation of the maximum Vmax.
The biological results are summarized in Table 1, wherein, for SERCA ATPase EC50 values, A represents a value smaller than 20 μM, B represents a value between 20 μM to 100 μM, C represents a value greater than 100 μM; and for increases in Vmax at 10 μM, A′ represents an increase greater than 50%, B′ represents an increase between 20 to 50%, and C′ represents an increase no greater than 20%.

Compound	Increase in Vmax at 10 μM
Cc1ccc2cccc(-c3nc(-c4ccc(OC(C)C)cc4)no3)c2n1 [B1, 3-(4-Isopropoxyphenyl)-5-(2-methylquinolin-8-yl)-1,2,4-oxadiazole]	B′ (B′ represents an increase between 20 to 50%)
Cc1ccc2cccc(-c3nc(-c4ccc(Br)s4)no3)c2n1 [B2, 3-(5-Bromothiophen-2-yl)-5-(2-methylquinolin-8-yl)-1,2,4-oxadiazole]	B′ (B′ represents an increase between 20 to 50%)
Cc1ccc2cccc(NCc3ccc(OC(C)C)cc3)c2n1 [C1, N-((4-Isopropoxyphenyl)methyl)-2-methylquinolin-8-amine]	B′ (B′ represents an increase between 20 to 50%)
Cc1ccc2cccc(NCc3cc(Br)cs3)c2n1 [C2, N-((4-Bromothiophen-2-yl)methyl)-2-methylquinolin-8-amine]	B′ (B′ represents an increase between 20 to 50%)
Cc1ccc2cccc(NCc3ccc(Br)s3)c2n1 [C3, N-((5-Bromothiophen-2-yl)methyl)-2-methylquinolin-8-amine]	B′ (B′ represents an increase between 20 to 50%)
Cc1ccc2cccc(NS(=O)(=O)c3ccc(OC(C)C)cc3)c2n1 [D1, N-(2-Methylquinolin-8-yl)-5-isopropoxyphenyl-2-sulfonamide]	C′ (C′ represents an increase no greater than 20%)
Cc1ccc2cccc(NS(=O)(=O)c3cc(Br)cs3)c2n1 [D2, 4-Bromo-N-(2-methylquinolin-8-yl)thiophene-2-sulfonamide]	B′ (B′ represents an increase between 20 to 50%)
Cc1ccc2cccc(NS(=O)(=O)c3ccc(Br)s3)c2n1 [D3, 5-Bromo-N-(2-methylquinolin-8-yl)thiophene-2-sulfonamide]	B′ (B′ represents an increase between 20 to 50%)

Same assay, conditions: SR vesicles; concentration for 50% activation of the maximum Vmax

Compound	EC50 [µM]
Cc1ccc2cccc(-c3nc(-c4ccc(OC(C)C)cc4)no3)c2n1 [B1, 3-(4-Isopropoxyphenyl)-5-(2-methylquinolin-8-yl)-1,2,4-oxadiazole]	< 20
Cc1ccc2cccc(NCc3ccc(OC(C)C)cc3)c2n1 [C1, N-((4-Isopropoxyphenyl)methyl)-2-methylquinolin-8-amine]	< 20
Cc1ccc2cccc(NS(=O)(=O)c3ccc(OC(C)C)cc3)c2n1 [D1, N-(2-Methylquinolin-8-yl)-5-isopropoxyphenyl-2-sulfonamide]	< 20
Cc1ccc2cccc(NS(=O)(=O)c3cc(Br)cs3)c2n1 [D2, 4-Bromo-N-(2-methylquinolin-8-yl)thiophene-2-sulfonamide]	< 20

Second part, the compound after the results:

EC50 [µM]	Compound
< 20	Cc1ccc2cccc(-c3nc(-c4ccc(Br)s4)no3)c2n1 [B2, 3-(5-Bromothiophen-2-yl)-5-(2-methylquinolin-8-yl)-1,2,4-oxadiazole]
< 20	Cc1ccc2cccc(NCc3cc(Br)cs3)c2n1 [C2, N-((4-Bromothiophen-2-yl)methyl)-2-methylquinolin-8-amine]
< 20	Cc1ccc2cccc(NCc3ccc(Br)s3)c2n1 [C3, N-((5-Bromothiophen-2-yl)methyl)-2-methylquinolin-8-amine]
< 20	Cc1ccc2cccc(NS(=O)(=O)c3ccc(Br)s3)c2n1 [D3, 5-Bromo-N-(2-methylquinolin-8-yl)thiophene-2-sulfonamide]
